Data as given in patent publication US20170226142A1 (Achillion Pharmaceuticals, Inc., priority 2014, published 2017).
Like-named read-outs stand apart in the source and are kept apart here.

Target: T1, Human factor D (Homo sapiens, UniProt P00746)
T1 construct: purified from human serum; purchased Complement Technology, Inc; host or cells: human serum
Test: Human Factor D Assay (Factor D inhibition assay)
Format: biochemical
Protocol: Routine changes in starting materials and reaction conditions, readily apparent to those of skill in the art, were used to make the particular compounds disclosed in Table 2.
Human factor D (purified from human serum, Complement Technology, Inc.) at 80 nM final concentration is incubated with test compound at various concentrations for 5 minutes at room temperature in 50 mM Tris, 1M NaCl, pH 7.5. A synthetic substrate Z-L-Lys-SBzl and DTNB (Ellman's reagent) are added to final concentrations of 100 µM each. The increase in color is recorded at OD405 nm in a microplate in kinetic mode over 30 minutes with 30 second time points in a […]. IC50 values are calculated by non-linear regression from the percentage of inhibition of complement factor D activity as a function of test compound concentration.

[1] = Factor D 80 nM, substrate Z-L-Lys-SBzl, DTNB, pH 7.5, read-out: IC50

T1 sequence (P00746 26-253): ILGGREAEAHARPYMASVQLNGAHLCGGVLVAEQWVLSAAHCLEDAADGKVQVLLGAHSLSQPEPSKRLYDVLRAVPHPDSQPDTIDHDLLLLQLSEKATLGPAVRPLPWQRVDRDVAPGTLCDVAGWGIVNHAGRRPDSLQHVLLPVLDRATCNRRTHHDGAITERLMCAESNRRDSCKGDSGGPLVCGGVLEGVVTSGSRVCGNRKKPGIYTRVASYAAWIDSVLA

Row | Structure (SMILES) | IC50 [1] | also measured
1 | NC(=O)c1nn(CC(=O)N2C[C@H](F)C[C@H]2C(=O)Nc2cccc(-c3ccccc3Cl)c2F)c2cc(C(=O)NS(=O)(=O)C3CC3)ccc12 [Compound 212] |  | IC50 (pH 7.5, read-out: IC50): < 1000 nM
2 | C=CC1C[C@]1(NC(=O)[C@@H]1C[C@@H](F)CN1C(=O)Cn1cc(C(C)=O)c2ccc(O)cc21)C(=O)NS(=O)(=O)C1CC1 (stereo partly drawn) [Compound 88, (2S,4R)-1-(2-(3-acetyl-6-hydroxy-1H-indol-1-yl)acetyl)-N-((1R)-1-(cyclopropylsulfonylcarbamoyl)-2-vinylcyclopropyl)-4-fluoropyrrolidine-2-carboxamide] | 1000 to 10000 nM | 
3 | CC(=O)c1cn(CC(=O)N2C[C@H](F)C[C@H]2C(=O)NCc2cccc(Cl)c2F)c2ccc(C#Cc3cccc(OC(F)(F)F)c3F)cc12 [Compound 177, (2S,4R)-1-(2-(3-acetyl-5-((2-fluoro-3-(trifluoromethoxy)phenyl)ethynyl)-1H-indol-1-yl)acetyl)-N-(3-chloro-2-fluorobenzyl)-4-fluoropyrrolidine-2-carboxamide] | 1000 to 10000 nM | 
4 | CC(=O)c1nn(CC(=O)N2C[C@H](F)C[C@H]2C(=O)Nc2cccc(SC(F)(F)F)c2)c2cnccc12 [Compound 53, (2S,4R)-1-(2-(3-acetyl-1H-pyrazolo[3,4-c]pyridin-1-yl)acetyl)-4-fluoro-N-(3-((trifluoro-methyl)thio)phenyl)pyrrolidine-2-carboxamide] | < 1000 nM | 
5 | CCOP(=O)(OCC)c1ccc2c(C(C)=O)cn(CC(=O)N3[C@@H]4CCC[C@@H]4C[C@H]3C(=O)NCc3cccc(Cl)c3F)c2c1 [Compound 76, diethyl 1-(2-((2S,3aR,6aR)-2-((3-chloro-2-fluorobenzyl)carbamoyl)-hexahydrocyclopenta[b]pyrrol-1(2H)-yl)-2-oxoethyl)-3-acetyl-1H-indol-6-ylphosphonate] |  | IC50 (read-out: IC50): < 1000 nM
6 | CC(=O)c1cn(CC(=O)N2C[C@H](F)C[C@H]2C(=O)Nc2cccc(Oc3ccccc3)c2)c2cc(OCP(=O)(O)O)ccc12 [Compound 232, (((3-acetyl-1-(2-((2S,4R)-4-fluoro-2-((3-phenoxyphenyl)carbamoyl)pyrrolidin-1-yl)-2-oxoethyl)-1H-indol-6-yl)oxy)methyl)phosphonic acid] |  | IC50: 1000 to 10000 nM
7 | CC(=O)c1cn(CC(=O)N2C[C@H](F)C[C@H]2C(=O)NCc2cccc(Cl)c2F)c2ccc(NC(=O)OC3CC3)cc12 [Compound 186, cyclopropyl (3-acetyl-1-(2-((2S,4R)-2-((3-chloro-2-fluorobenzyl)carbamoyl)-4-fluoropyrrolidin-1-yl)-2-oxoethyl)-1H-indol-5-yl)carbamate] | < 1000 nM | 
8 | CC(=O)c1cn(CC(=O)N2CCOC[C@H]2C(=O)NCc2cccc(Cl)c2F)c2cc(C(=O)O)ccc12 [Compound 159, (S)-1-(2-(3-((3-chloro-2-fluorobenzyl)carbamoyl)morpholino)-2-oxoethyl)-3-acetyl-1H-indole-6-carboxylic acid] | < 1000 nM | 
9 | O=C(NCc1cccc(Cl)c1F)[C@@H]1C[C@@H](F)CN1C(=O)Cn1nc(P(=O)(O)O)c2ccncc21 [Compound 65] | > 10000 nM | 
